Laboratory results taken from ChEMBL document CHEMBL2413037, “Cembrane diterpenoids from the soft coral Sarcophyton trocheliophorum Marenzeller as a new class of PTP1B inhibitors” (Bioorg Med Chem, 2013).

Legend:
[1] = molecular target: T1, Tyrosine-protein phosphatase non-receptor type 1 (Homo sapiens, UniProt P18031); experiment: Inhibition of human recombinant PTP1B-mediated pNPP hydrolysis
T1 sequence (P18031 whole entry): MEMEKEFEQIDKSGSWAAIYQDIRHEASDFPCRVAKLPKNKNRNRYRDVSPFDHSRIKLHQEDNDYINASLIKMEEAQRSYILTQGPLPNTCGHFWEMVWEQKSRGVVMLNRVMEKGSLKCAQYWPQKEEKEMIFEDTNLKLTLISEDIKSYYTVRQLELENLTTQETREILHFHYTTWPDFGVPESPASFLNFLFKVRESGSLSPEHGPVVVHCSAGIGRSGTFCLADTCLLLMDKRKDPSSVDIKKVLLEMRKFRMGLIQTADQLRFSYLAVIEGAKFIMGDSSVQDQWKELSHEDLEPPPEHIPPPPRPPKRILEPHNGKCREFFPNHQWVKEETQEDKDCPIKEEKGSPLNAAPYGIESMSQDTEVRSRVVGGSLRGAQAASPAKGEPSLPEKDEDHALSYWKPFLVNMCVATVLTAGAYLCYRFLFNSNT

[2] = system: A549; experiment: Cytotoxicity against human A549 cells; type: cell-based
[3] = system: HL-60; experiment: Cytotoxicity against human HL60 cells; type: cell-based

## C/C1=C\C=C(\C(C)C)CC/C(C)=C/CC/C(C)=C/CC1
[1]
  IC50: 26.6 µM
[2]
  Activity: Non-toxic
[3]
  Activity: Non-toxic

## COC(=O)/C1=C\CC[C@](C)(O)[C@H](O)CC/C(C(=O)OC)=C\C=C(/C(C)C)CC1
[1]
  IC50: ≥ 50.7 µM
[2]
  Activity: Non-toxic
[3]
  Activity: Non-toxic

## CC(C)=C1C/C=C(\C)CC/C=C(\C)CC/C=C(\C)CC1
[1]
  IC50: ≥ 73.4 µM
[2]
  Activity: Non-toxic
[3]
  Activity: Non-toxic

## COC(=O)/C1=C/C=C(/C(C)C)CCC2=CCC[C@](C)(OC2=O)C(=O)CC1 [SARCRASSIN E]
[1]
  IC50: 6.33 µM
[2]
  Activity: Non-toxic
[3]
  Activity: Non-toxic

## COC(=O)/C1=C\C=C(\C(C)C)CC/C(C)=C/CC/C(C)=C/CC1
[1]
  IC50: 5.95 µM
[2]
  Activity: Non-toxic
[3]
  Activity: Non-toxic

## C/C1=C/C=C(/C(C)C)CCC2=CCC[C@](C)(OC2=O)C(=O)CC1
[1]
  IC50: 15.4 µM
[2]
  Activity: Non-toxic
[3]
  Activity: Non-toxic

## CC(=O)O[C@@H]1C/C(C)=C/C/C=C(/C)CC(=O)CC2=C[C@@H](OC2=O)[C@@H]1C(C)C
[1]
  IC50: ≥ 53.4 µM
[2]
  Activity: Non-toxic
[3]
  Activity: Non-toxic

## COC(=O)/C1=C\CC[C@]2(C)O[C@H]2CC/C(C(=O)OC)=C/C=C(/C(C)C)CC1
[1]
  IC50: ≥ 53.1 µM
[2]
  Activity: Non-toxic
[3]
  Activity: Non-toxic

## COC(=O)/C1=C\C=C(\C(C)C)CCC2=CCC[C@](C)(OC2=O)C(=O)CC1 [KETOEMBLIDE]
[1]
  IC50: 27.2 µM
[2]
  Activity: Non-toxic
[3]
  Activity: Non-toxic

## COC(=O)/C1=C\C=C(\C(C)C)CC/C(C(=O)O)=C/CC[C@]2(C)O[C@H]2CC1
[1]
  IC50: ≥ 55.2 µM
[2]
  Activity: Non-toxic
[3]
  Activity: Non-toxic

## CC(=O)O[C@@H]1C/C(C)=C/CCC(C)CC(=O)CC2=C[C@@H](OC2=O)[C@@H]1C(C)C (stereo partly drawn)
[1]
  IC50: ≥ 53.1 µM
[2]
  Activity: Non-toxic
[3]
  Activity: Non-toxic
